The values that follow come from PubChem BioAssay AID743477 (Broad Institute, 2014).

“And” between values parts separate entries of the source, which are not always exact repeats. Identical values can stand only once. The source made the active and inactive calls.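 Rule for the calls: active = fitted curve drops to -35% activity change at a dose no higher than twice the top valid tested dose; inconclusive = no clear call, values can overlap the other calls; inactive = the rest, including effects opposite to the expected drop.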

System in the first assay: not listed separately
Briefly: TC71 Ewing sarcoma cell viability loss – luminescence, retest at dose, dry powder, confirmation (AID 743477). The settings on record: TC71 Ewing sarcoma viability, CellTiter-Glo ATP, 72 h; at 6 µM (top of the series). In general terms: In ATP-based viability assays light output follows the ATP content of the culture.
As for `Clc1ccc(-c2cnc3ccc(-c4ccccc4)cn23)cc1`, the activity change, negative = cytotoxicity was -1.71% (inactive).

Still in this assay, the particulars now being: TC71 Ewing sarcoma viability, CellTiter-Glo ATP, 72 h; at 12 µM (top of the series).
Take `COc1ccc(NC(=O)Nc2ccc3c(c2)C(=O)N([C@@H](C)CO)C[C@H](C)[C@H](CN(C)Cc2ccc4c(c2)OCO4)O3)cc1`: the activity change, negative = cytotoxicity was -31.5% (inactive).

The same assay, now with this note: TC71 Ewing sarcoma viability, CellTiter-Glo ATP, 72 h; at 26 µM (top of the series).
In the case of `COc1ccc(-c2cc(NC(C)=O)c3ncc(-c4ccc(OC)c(OC)c4)n3c2)cc1`, the activity change, negative = cytotoxicity is -8.1% (inactive).

Turning to `COc1ccc(C2CNC(=O)C2)cc1OC1CCCC1` (configuration not stated), the activity change, negative = cytotoxicity was 1.67% (inactive).

Take `COC(=O)c1ccc(C2C(C#N)=C(N)Oc3cc(N)ccc32)cc1` (configuration not stated): the activity change, negative = cytotoxicity was -13.5% (inactive).

Turning to `COc1ccc(CNc2nc(N3CCC[C@H]3CO)ncc2C(=O)NCc2ncccn2)cc1Cl`, the activity change, negative = cytotoxicity was -6.81% (inactive).

Take `N#CC1=C(N)Oc2cc(N)ccc2C12C(=O)Nc1ccc(Br)cc12` (configuration not stated): the activity change, negative = cytotoxicity was -13% (inactive).

On to `COc1ccc(C2=Nn3c(nnc3-c3ccccc3)SC2)cc1OC`, for which the activity change, negative = cytotoxicity is -10.7% (inactive).

On to `COc1ccc(C2C(C#N)=C(N)Oc3cc(N)ccc32)cc1` (configuration not stated), for which the activity change, negative = cytotoxicity was -6.57% (inactive).

In the case of `CN(C(=O)CCCOc1ccc2[nH]c(=O)ccc2c1)C1CCCCC1`, the activity change, negative = cytotoxicity is -11% (inactive).

As to `COc1ccccc1C1C(C#N)=C(N)Oc2cc(N)ccc21` (configuration not stated), the activity change, negative = cytotoxicity is -24.3% (inactive).

For `N#CC1=C(N)Oc2cc(N)ccc2C1c1ccc(Cl)cc1` (configuration not stated), the activity change, negative = cytotoxicity was -10.5% (inactive).

Regarding `Cc1ccc(C2C(C#N)=C(N)Oc3cc(N)ccc32)cc1` (configuration not stated), the activity change, negative = cytotoxicity is -0.007% (inactive).

Turning to `C[C@]1(c2nc3c(C(N)=O)cccc3[nH]2)CCCN1`, the activity change, negative = cytotoxicity is -3.66% (inactive).

Consider `O=C(Nc1c(Cl)cncc1Cl)c1ccc(OC(F)F)c(OCC2CC2)c1`, for which the activity change, negative = cytotoxicity is -7.16% (inactive).

Regarding `CN1c2ccc(-c3ccc(C#N)cc3)cc2[C@H]2[C@H](CCN2S(=O)(=O)c2ccc(F)cc2)[C@H]1CO`, the activity change, negative = cytotoxicity is -15.7% (inactive).

Take `CCC(C)(C)C(=O)O[C@H]1C[C@@H](C)C=C2C=C[C@H](C)[C@H](CC[C@@H]3C[C@@H](O)CC(=O)O3)[C@H]21`: the activity change, negative = cytotoxicity was -7.31% (inactive).

The assay is the same for the next values; noted with them: TC71 Ewing sarcoma viability, CellTiter-Glo ATP, 72 h; at 50 µM (top of the series).
In the case of `O=P1(NCCCl)OCCCN1CCCl` (configuration not stated), the activity change, negative = cytotoxicity was 3.6% (inactive).

In another assay the test system is TC71 Ewing sarcoma viability, CellTiter-Glo ATP, 72 h. The description is as above.
Settings: not given
For `COc1ccc(-c2ccc3c(c2)[C@H]2[C@H](CCN2S(=O)(=O)c2ccc(OC)cc2)[C@@H](CO)N3)cc1`, the AC35 was 3720 nM.

For `N#CC1=C(N)Oc2cc(N)ccc2C1c1ccccc1Cl` (configuration not stated), the AC35 is 10600 nM.

Regarding `Cc1ccccc1C1C(C#N)=C(N)Oc2cc(N)ccc21` (configuration not stated), the AC35 was 13200 nM.

As to `COc1ccccc1S(=O)(=O)N1CC[C@@H]2[C@@H](CO)Nc3ccc(-c4ccc(C#N)cc4)cc3[C@@H]21`, the AC35 is 10500 nM.

Take `Cc1cccc(C2C(C#N)=C(N)Oc3cc(N)ccc32)c1` (configuration not stated): the AC35 was 689 nM.

As to `CCCCc1ccc2nc(NC(=O)OC)[nH]c2c1`, the AC35 was less than 50 nM.

Regarding `CC[C@@]1(O)C(=O)OCc2c1cc1n(c2=O)Cc2cc3c(CN(C)C)c(O)ccc3nc2-1`, the AC35 was 29 nM.

With `COc1ccccc1-c1nnc2n1N=C(c1ccc(O)c(O)c1)CS2`, the AC35 is 1320 nM.

Turning to `CC1(C)CC(c2nc(-c3ccc4ccc(-c5ccccc5)nc4c3)c3c(N)nccn23)C1`, the AC35 is 4500 nM.

For the molecule `COc1ccc(S(=O)(=O)N2CC[C@@H]3[C@@H](CO)Nc4ccc(-c5ccc(C#N)cc5)cc4[C@@H]32)cc1`, the AC35 was 3780 nM.

Consider `Nc1ncnc2c1c(-c1cccc(OCc3ccccc3)c1)cn2C1CC(CN2CCCC2)C1` (configuration not stated), for which the AC35 was 10500 nM.

In the case of `COc1ccc(-c2cc(NC=O)c3ncc(-c4ccc(OC)c(OC)c4)n3c2)cc1`, the AC35 was 563 nM.

Turning to `C[C@@]1(C(=O)Nc2ccc(F)nc2)CCCN1c1nc(Nc2cc(C3CC3)[nH]n2)c2cccn2n1`, the AC35 is 458 nM.

On to `CC(C)(O)CCc1ccc(O)c2c(=O)c3c(O)c4c(cc3oc12)O[C@H]1OC=C[C@@]41O`, for which the AC35 was less than 26 nM.

On to `COc1ccc(C(=O)CC2(O)C(=O)Nc3c(Cl)ccc(Cl)c32)cc1` (configuration not stated), for which the AC35 was 2930 nM.

In the case of `Cc1ccc(S(=O)(=O)N2CC[C@@H]3[C@@H](CO)Nc4ccc(-c5ccc(C#N)cc5)cc4[C@@H]32)cc1`, the AC35 was 18600 nM.

For `CCOC(=O)CCNc1cc(N2CCc3ccccc3CC2)nc(-c2ccccn2)n1`, the AC35 is 2590 nM.

With `N#CC1=C(N)Oc2cc(OC(=O)c3ccccc3)ccc2C1c1cccc(Br)c1` (configuration not stated), the AC35 was 3080 nM.

On to `Cn1cc(-c2ccncc2)c(-c2ccc(OCc3ccc4ccccc4n3)cc2)n1`, for which the AC35 was 20000 nM.

In the case of `Clc1ccccc1-c1nnc2n1N=C(c1ccc3c(c1)OCO3)CS2`, the AC35 is 411 nM.

For `CN(C)c1ccc2c(c1)OC(N)=C(C#N)C2c1cccc(F)c1` (configuration not stated), the AC35 was 21.4 nM.

Take `N#CC1=C(N)Oc2ccc3ccccc3c2C1c1cccc(F)c1` (configuration not stated): the AC35 was 677 nM.

Take `COc1ccc(C2=Nn3c(nnc3-c3ccccc3OC)SC2)cc1OC`: the AC35 is 61.3 nM.

Consider `CCC(C)C(=O)OC1CC(C)C=C2C=CC(C)C(CCC(O)CC(O)CC(=O)O)C21` (configuration not stated), for which the AC35 is 45300 nM.

For the molecule `COc1ccc(S(=O)(=O)N2CC[C@@H]3[C@@H](CO)Nc4ccc(-c5cccc(C#N)c5)cc4[C@@H]32)cc1`, the AC35 is 4140 nM.

Turning to `N#Cc1ccc(-c2ccc3c(c2)[C@H]2[C@H](CCN2S(=O)(=O)c2ccccc2F)[C@@H](CO)N3)cc1`, the AC35 was 11000 nM.

On to `CC(C)N1c2ccccc2C(c2ccc(F)cc2)C1/C=C/C(O)CC(O)CC(=O)O` (configuration not stated), for which the AC35 was 2590 nM.

For `CC[C@]1(O)CC2CN(CCc3c([nH]c4ccccc34)[C@@](C(=O)OC)(c3cc4c(cc3OC)N(C=O)[C@H]3[C@@](O)(C(=O)OC)[C@H](OC(C)=O)[C@]5(CC)C=CCN6CC[C@]43[C@@H]65)C2)C1` (some centres not stated), the AC35 was less than 1.5 nM.

As for `N#CC1=C(N)Oc2cc(N)ccc2C1c1ccccc1` (configuration not stated), the AC35 is 12800 nM.

Consider `COc1ccccc1-c1nnc2n1N=C(c1ccc3c(c1)OCO3)CS2`, for which the AC35 was 20.7 nM.

As for `CN1CCN(CCOc2cc(OC3CCOCC3)c3c(Nc4c(Cl)ccc5c4OCO5)ncnc3c2)CC1`, the AC35 was 21200 nM.

For `COc1ccc(OC)c(-c2nnc3n2N=C(c2ccc(OC)c(OC)c2)CS3)c1`, the AC35 is 27.6 nM and 22.6 nM.

As to `N#CC1=C(N)Oc2cc(N)ccc2C1c1ccc2ccccc2c1` (configuration not stated), the AC35 was 11900 nM.

Take `COc1cc([C@@H]2c3cc4c(cc3[C@@H](O[C@@H]3O[C@@H]5CO[C@@H](C)O[C@H]5[C@H](O)[C@H]3O)[C@H]3COC(=O)[C@H]23)OCO4)cc(OC)c1O`: the AC35 is 577 nM.

On to `Nc1ccn([C@@H]2O[C@H](CO)[C@H](O)C2O)c(=O)n1` (some centres not stated), for which the AC35 is 585 nM.

For `COc1cc(C2C(C#N)=C(N)Oc3cc(N(C)C)ccc32)cc2c1OCO2` (configuration not stated), the AC35 is 132 nM.

Turning to `N#CC1=C(N)Oc2cc(O)ccc2C1c1cccc(Br)c1` (configuration not stated), the AC35 is 2720 nM.

In the case of `N#CC1=C(N)Oc2cc(N)ccc2C1c1cccc(F)c1` (configuration not stated), the AC35 was 1770 nM.

As for `O=C(Cc1ccc(-c2ccc(OCCN3CCOCC3)cc2)cn1)NCc1ccccc1`, the AC35 was less than 23.5 nM.

Turning to `Cc1cc(Nc2cc(N3CCN(C)CC3)nc(Sc3ccc(NC(=O)C4CC4)cc3)n2)n[nH]1`, the AC35 is 2150 nM.

In the case of `COc1ccc(-c2ccc3c(c2)[C@H]2[C@H](CCN2S(=O)(=O)c2ccc(OC)cc2)[C@@H](CO)N3C)cc1`, the AC35 is 3190 nM.

Regarding `COc1ccc(C2=Nn3c(nnc3-c3ccccc3F)SC2)cc1OC`, the AC35 was 3340 nM.

`COc1cccc(C2C(C#N)=C(N)Oc3cc(N)ccc32)c1` (configuration not stated): the AC35 is 571 nM.

On to `N#CC1=C(N)Oc2cc3c(cc2C1c1cccc(Br)c1)OCO3` (configuration not stated), for which the AC35 was 49.7 nM.

Regarding `CCc1c2c(nc3ccc(O)cc13)-c1cc3c(c(=O)n1C2)COC(=O)C3(O)CC` (configuration not stated), the AC35 is 1.99 nM.

With `Cc1ccc([N+](=O)[O-])cc1S(=O)(=O)N(C)C`, the AC35 is 7950 nM.

With `COc1ccc(S(=O)(=O)N2CC[C@@H]3[C@@H](CO)N(C)c4ccc(-c5ccc(F)cc5)cc4[C@@H]32)cc1`, the AC35 is 3410 nM.

Regarding `N#CC1=C(N)Oc2cc(N)ccc2C1c1cccc(Br)c1` (configuration not stated), the AC35 is 183 nM.

For `C=C([C@@H](O)[C@@H](C)O)[C@@H](OC)[C@]1(C)Cc2cc3cc(O[C@H]4CC(OC5CC(O)C(O)C(C)O5)C(O)C(C)O4)cc(O)c3c(O)c2C(=O)[C@H]1OC1CC(OC2CC(OC3CC(C)(O)C(O)C(C)O3)C(O)C(C)O2)C(O)C(C)O1` (some centres not stated), the AC35 is 55.8 nM.

Take `CN1c2ccc(-c3ccc(C#N)cc3)cc2[C@H]2[C@H](CCN2S(=O)(=O)c2cccc(F)c2)[C@H]1CO`: the AC35 was 3760 nM.

Regarding `COc1ccc(S(=O)(=O)N2CC[C@@H]3[C@H](CO)Nc4ccc(-c5ccc(C#N)cc5)cc4[C@@H]32)cc1`, the AC35 is 7920 nM.

Consider `N#Cc1ccc(-c2ccc3c(c2)[C@H]2[C@H](CCN2S(=O)(=O)c2cccc(F)c2)[C@@H](CO)N3)cc1`, for which the AC35 is 7800 nM.

On to `COc1cccc(S(=O)(=O)N2CC[C@@H]3[C@@H](CO)Nc4ccc(-c5ccc(C#N)cc5)cc4[C@@H]32)c1`, for which the AC35 is 21000 nM.

On to `O=C(c1cc(Cc2n[nH]c(=O)c3ccccc23)ccc1F)N1CCN(C(=O)C2CC2)CC1`, for which the AC35 was 2300 nM.

Consider `COc1ccc(C2=Nn3c(nnc3-c3ccccc3Cl)SC2)cc1OC`, for which the AC35 was 427 nM.

With `Cc1nc(Nc2ncc(C(=O)Nc3c(C)cccc3Cl)s2)cc(N2CCN(CCO)CC2)n1`, the AC35 was 26800 nM.

In the case of `COc1ccc(S(=O)(=O)N(C(C)=O)c2ccc(OC(C)=O)c3ccccc23)cc1[N+](=O)[O-]`, the AC35 was 4460 nM.

Regarding `Cc1c([C@H](C(Cl)Cl)[C@H](O)[C@H]2C[C@H](C)C(=O)O2)ccc2c1C(=O)[C@H]1[C@H]2C[C@@H](Br)[C@@]23O[C@@H](CO[C@H]2O)C[C@]13C`, the AC35 was less than 50 nM.

Take `COc1cccc2c1C(=O)c1c(O)c3c(c(O)c1C2=O)C[C@@](O)(C(=O)CO)C[C@@H]3O[C@H]1C[C@H](N)[C@H](O)[C@H](C)O1`: the AC35 was less than 50 nM.
